According to patent US20220193081A1 (Ellamed IP & Services PTE. LTD., priority 2019, published 2022):

Experiments:
[1] = HPLC assay on storage of sildenafil citrate with equal concentration of sucralose in pH adjusted 50% ethanol (Example 2); format: physicochemical; conditions: for Impurity B / Impurity D / sildenafil assay: 25° C., Day 285
Description: At room temperature, a phosphate buffer was prepared by weighing 3.9 g of NaH2PO4.2H2O into a 500 mL volumetric flask and adding approximately 300 mL of purified water until the phosphate fully dissolved. The pH was then adjusted to 7 with the introduction of NaOH and dilute to the requisite volume by the further addition of purified water.
A 50% ethanol mixture was prepared by introducing either purified water, taken from a MilliQ™ unit or phosphate buffer, to equivalent volumes of Ph.Eur. grade absolute alcohol. The pH of the resultant mixture was then adjusted by using either NaOH 1N solutions and/or Sodium Citrate 1N solutions to reach predetermined pH values.
Samples of sucralose were then dissolved in the pH adjusted 50% ethanol, whilst stirred with a magnetic stirrer and a needle, to a predetermined concentration. […] After preparation, the solutions were each filtered through PDVF 0.22 micro filter of 13 mm in size and placed in polypropylene containers of adequate volume.
Before being placed on storage, and at time points 7 and 42 days, the concentration of sildenafil in the mixture was assayed using HPLC. The samples were then stored at either −20° C., 2-8° C. or 25° C. for periods of up to 42 days. Periodically, the samples were visually inspected for evidence of precipitation or crystallization. […]
The samples of 21 mg/ml at a pH of 5.6 were maintained in stability testing at 25° C. for a total of 285 days.

[2] = HPLC assay on storage of sildenafil citrate in buffered 60% aqueous ethanol (Example 4); format: physicochemical; conditions: pH 5.5, NaOH
Description: Before being placed on storage, and at time points 7 and 42 days, the concentration of sildenafil in the mixtures were assayed using HPLC. The samples were then stored at either −20° C., 2-8° C. or 25° C. for periods of up to 42 days. Periodically, the samples were visually inspected for evidence of crystallization.

[3] = 21 mg/ml, pH 5.6, Sodium Citrate

SMILES: CCCc1nn(C)c2c(=O)nc(-c3cc(S(=O)(=O)N4CCN(C)CC4)ccc3OCC)[nH]c12.O=C(O)CC(O)(CC(=O)O)C(=O)O [sildenafil citrate, 1-[[3-(4,7-Dihydro-1-methyl-7-oxo-3-propyl-1H-pyrazolo[4,3-d]pyrimidin-5-yl)-4-ethoxyphenyl]sulfonyl]-4-methylpiperazine citrate salt]
- concentration of sildenafil by HPLC ([1]; 18 mg/ml, pH 5.6, NaOH, 2-8 ° C., Day 42): 18070 µg/mL
- concentration of sildenafil by HPLC ([1]; 18 mg/ml, pH 5.6, NaOH, 25 ° C., Day 7): 17860 µg/mL
- concentration of sildenafil by HPLC ([1]; 18 mg/ml, pH 5.6, NaOH, 25 ° C., Day 42): 18070 µg/mL
- concentration of sildenafil by HPLC ([1]; 18 mg/ml, pH 5.6, NaOH, Day 0): 18130 µg/mL
- concentration of sildenafil by HPLC ([1]; 18 mg/ml, pH 5.6, Sodium Citrate, 2-8 ° C., Day 7): 17820 µg/mL
- concentration of sildenafil by HPLC ([1]; 18 mg/ml, pH 5.6, Sodium Citrate, 2-8 ° C., Day 42): 17880 µg/mL
- concentration of sildenafil by HPLC ([1]; 18 mg/ml, pH 5.6, Sodium Citrate, 25 ° C., Day 7): 17820 µg/mL
- concentration of sildenafil by HPLC ([1]; 18 mg/ml, pH 5.6, Sodium Citrate, 25 ° C., Day 42): 17910 µg/mL
- concentration of sildenafil by HPLC ([1]; 18 mg/ml, pH 5.6, Sodium Citrate, Day 0): 18190 µg/mL
- concentration of sildenafil by HPLC ([1]; 18 mg/ml, pH 5.63, NaOH, 50% ethanol/phosphate buffer, 2-8 ° C., Day 7): 18010 µg/mL
- concentration of sildenafil by HPLC ([1]; 18 mg/ml, pH 5.63, NaOH, 50% ethanol/phosphate buffer, 25 ° C., Day 7): 18040 µg/mL
- concentration of sildenafil by HPLC ([1]; 18 mg/ml, pH 5.63, NaOH, 50% ethanol/phosphate buffer, Day 0): 18180 µg/mL
- concentration of sildenafil by HPLC ([1]; 18 mg/ml, pH 6.0, Sodium Citrate, 2-8 ° C., Day 7): 14950 µg/mL
- concentration of sildenafil by HPLC ([1]; 18 mg/ml, pH 6.0, Sodium Citrate, 25 ° C., Day 7): 15080 µg/mL
- concentration of sildenafil by HPLC ([1]; 18 mg/ml, pH 6.0, Sodium Citrate, Day 0): 17760 µg/mL
- concentration of sildenafil by HPLC ([1]; 21 mg/ml, pH 5.29, NaOH, 50% ethanol/phosphate buffer, 2-8 ° C., Day 7): 20970 µg/mL
- concentration of sildenafil by HPLC ([1]; 21 mg/ml, pH 5.29, NaOH, 50% ethanol/phosphate buffer, 25 ° C., Day 7): 20980 µg/mL
- concentration of sildenafil by HPLC ([1]; 21 mg/ml, pH 5.29, NaOH, 50% ethanol/phosphate buffer, Day 0): 20940 µg/mL
- concentration of sildenafil by HPLC ([1]; 21 mg/ml, pH 5.5, NaOH, 2-8 ° C., Day 7): 20860 µg/mL
- concentration of sildenafil by HPLC ([1]; 21 mg/ml, pH 5.5, NaOH, 25 ° C., Day 7): 20970 µg/mL
- concentration of sildenafil by HPLC ([1]; 21 mg/ml, pH 5.5, NaOH, Day 0): 21110 µg/mL
- concentration of sildenafil by HPLC ([1]; 21 mg/ml, pH 5.5, Sodium Citrate, 2-8 ° C., Day 7): 21140 µg/mL
- concentration of sildenafil by HPLC ([1]; 21 mg/ml, pH 5.5, Sodium Citrate, 25 ° C., Day 7): 21220 µg/mL
- concentration of sildenafil by HPLC ([1]; 21 mg/ml, pH 5.5, Sodium Citrate, Day 0): 21320 µg/mL
- concentration of sildenafil by HPLC ([1]; 21 mg/ml, pH 5.6, NaOH, 2-8 ° C., Day 7): 21040 µg/mL
- concentration of sildenafil by HPLC ([1]; 21 mg/ml, pH 5.6, NaOH, 2-8 ° C., Day 42): 21430 µg/mL
- concentration of sildenafil by HPLC ([1]; 21 mg/ml, pH 5.6, NaOH, 25 ° C., Day 7): 21020 µg/mL
- concentration of sildenafil by HPLC ([1]; 21 mg/ml, pH 5.6, NaOH, 25 ° C., Day 42): 21320 µg/mL
- Impurity B ([1]; 21 mg/ml, pH 5.6, NaOH): 0.00
- Impurity D ([1]; 21 mg/ml, pH 5.6, NaOH): 0.02
- sildenafil assay ([1]; 21 mg/ml, pH 5.6, NaOH): 21.16
- concentration of sildenafil by HPLC ([1]; 21 mg/ml, pH 5.6, NaOH, 50% ethanol/phosphate buffer, 2-8 ° C., Day 7): 20930 µg/mL
- concentration of sildenafil by HPLC ([1]; 21 mg/ml, pH 5.6, NaOH, 50% ethanol/phosphate buffer, 25 ° C., Day 7): 20990 µg/mL
- concentration of sildenafil by HPLC ([1]; 21 mg/ml, pH 5.6, NaOH, 50% ethanol/phosphate buffer, Day 0): 20970 µg/mL
- concentration of sildenafil by HPLC ([1]; 21 mg/ml, pH 5.6, NaOH, Day 0): 21200 µg/mL
- concentration of sildenafil by HPLC ([1]; 21 mg/ml, pH 5.6, Sodium Citrate, 2-8 ° C., Day 7): 20990 µg/mL
- concentration of sildenafil by HPLC ([1]; 21 mg/ml, pH 5.6, Sodium Citrate, 2-8 ° C., Day 42): 21410 µg/mL
- concentration of sildenafil by HPLC ([1]; 21 mg/ml, pH 5.6, Sodium Citrate, 25 ° C., Day 7): 21060 µg/mL
- concentration of sildenafil by HPLC ([1]; 21 mg/ml, pH 5.6, Sodium Citrate, 25 ° C., Day 42): 21270 µg/mL
- Impurity B [1, 3]: 0.01
- Impurity D [1, 3]: 0.02
- sildenafil assay [1, 3]: 21.14
- concentration of sildenafil by HPLC ([1]; 21 mg/ml, pH 5.6, Sodium Citrate, Day 0): 21260 µg/mL
- concentration of sildenafil by HPLC ([1]; 21 mg/ml, pH 5.8, NaOH, 2-8 ° C., Day 7): 20950 µg/mL
- concentration of sildenafil by HPLC ([1]; 21 mg/ml, pH 5.8, NaOH, 25 ° C., Day 7): 21730 µg/mL
- concentration of sildenafil by HPLC ([1]; 21 mg/ml, pH 5.8, NaOH, Day 0): 21150 µg/mL
- concentration of sildenafil by HPLC ([1]; 21 mg/ml, pH 5.8, Sodium Citrate, 2-8 ° C., Day 7): 20960 µg/mL
- concentration of sildenafil by HPLC ([1]; 21 mg/ml, pH 5.8, Sodium Citrate, 25 ° C., Day 7): 21070 µg/mL
- concentration of sildenafil by HPLC ([1]; 21 mg/ml, pH 5.8, Sodium Citrate, Day 0): 21080 µg/mL
- concentration of sildenafil by HPLC ([1]; 21 mg/ml, pH 6.01, NaOH, 50% ethanol/phosphate buffer, 2-8 ° C., Day 7): 16220 µg/mL
- concentration of sildenafil by HPLC ([1]; 21 mg/ml, pH 6.01, NaOH, 50% ethanol/phosphate buffer, 25 ° C., Day 7): 18020 µg/mL
- concentration of sildenafil by HPLC ([1]; 21 mg/ml, pH 6.01, NaOH, 50% ethanol/phosphate buffer, Day 0): 20770 µg/mL
- breakdown products ([1]; any of the conditions tested, up to 42 days): No breakdown products were identified
- concentration of sildenafil by HPLC ([2]; 18 mg/ml, with sucralose, 2-8 ° C., Day 7): 18550 µg/mL
- concentration of sildenafil by HPLC ([2]; 18 mg/ml, with sucralose, 2-8 ° C., Day 42): 15240 µg/mL
- concentration of sildenafil by HPLC ([2]; 18 mg/ml, with sucralose, 25 ° C., Day 7): 18000 µg/mL
- concentration of sildenafil by HPLC ([2]; 18 mg/ml, with sucralose, 25 ° C., Day 42): 17940 µg/mL
- concentration of sildenafil by HPLC ([2]; 18 mg/ml, with sucralose, Day 0): 17560 µg/mL
- concentration of sildenafil by HPLC ([2]; 18 mg/ml, without sucralose, 2-8 ° C., Day 7): 18330 µg/mL
- concentration of sildenafil by HPLC ([2]; 18 mg/ml, without sucralose, 2-8 ° C., Day 42): 15230 µg/mL
- concentration of sildenafil by HPLC ([2]; 18 mg/ml, without sucralose, 25 ° C., Day 7): 18080 µg/mL
- concentration of sildenafil by HPLC ([2]; 18 mg/ml, without sucralose, 25 ° C., Day 42): 17190 µg/mL
- concentration of sildenafil by HPLC ([2]; 18 mg/ml, without sucralose, Day 0): 17420 µg/mL
- concentration of sildenafil by HPLC ([2]; 21 mg/ml, without sucralose, 2-8 ° C., Day 7): 22110 µg/mL
- concentration of sildenafil by HPLC ([2]; 21 mg/ml, without sucralose, 2-8 ° C., Day 42): 13780 µg/mL
- concentration of sildenafil by HPLC ([2]; 21 mg/ml, without sucralose, 25 ° C., Day 7): 20400 µg/mL
- concentration of sildenafil by HPLC ([2]; 21 mg/ml, without sucralose, 25 ° C., Day 42): 19610 µg/mL
- concentration of sildenafil by HPLC ([2]; 21 mg/ml, without sucralose, Day 0): 20520 µg/mL
